Data: patent publication US8377918B2 (ACC Therapeutics Inc, priority 2005, dated 2013)

Experiments:
A2780/CP70 cells [1] = assay: MTT cell proliferation assay, A2780/CP70 ovarian cancer cells; assay type: cell-based, human; conditions: A2780/CP70, apigenin alone, 24 h
Experimental: (§1) FIG. 1. […] (A) A2780/CP70 cells and human fibroblast GM847 cells were seeded in 96-well plate at 4×10^3 cells per well and incubated overnight. […] The cells were incubated for 24 h. Cell proliferation was determined by MTT reduction. […] Cells were trypsinized, harvested, washed once with PBS buffer, and stained using the Annexin-V-Folus Kit as per the manufacture's instructions. […] After incubation, all cells were collected and total DNA was isolated. Eight (8) μg of DNA was resolved on 1.8% agarose gel. […] (D) Treatment of GM847 cells was the same as that of 5D. […] Cleavage of caspase-3 and PARP was detected by western-blot.
FIG. 3. […] A2780/CP70 cells were seeded in 96-well plates and incubated overnight. The old medium was discarded and fresh medium with cisplatin (CDDP) in the presence or absence of apigenin (Api) was added. In 24 h, the cell proliferation was determined by means of MTT reduction method.
FIG. 9. […] A, Cisplatin-resistant ovarian cancer cell line A2780/CP70, and B, prostate cancer cells PC-3 were seeded in 96-well plates at 1×10^4 cells/well and incubated overnight. […] In 24 h, the cell proliferation was assayed by using a MTT assay kit. *indicates significant difference compared to cisplatin alone (p<0.01).

HCT-116 cells = assay: MTT cell proliferation assay, HCT-116 colon cancer cells; assay type: cell-based, human; conditions: HCT-116, apigenin alone, 24 h
Experimental: FIG. 17. […] A, the prostate cancer cells PC-3 and DU145; B, colon cancer cells Colo-205 and HCT-116; C, lung cancer cells A549 and H460 cells were plated at 1×10^4 cells per well in a 96 well plate in 100 μl of media.

A2780/CP70 cells [2] = assay: Annexin V apoptosis assay, A2780/CP70; assay type: cell-based, human; conditions: 24 h
Experimental: as §1
FIG. 10. […] The cisplatin-resistant ovarian cancer A2780/CP70 cells were seeded in a petri dish. […] After treatment, the cells were collected and the relative cellular apoptosis was analyzed by Annexin V Kit (Roche), and compared to the control.

[3] = test system: tumors induced by A2780/CP70 cells; assay: Tumor weight of A2780/CP70 tumors on CAM; assay type: in vivo, chicken embryo; conditions: 10 μM apigenin or 2.5 μM CDDP+10 μM apigenin, 10 days
Experimental: (§2) FIG. 4. […] The A2780/CP70 cells were seeded into 100 mm dish and grown to 90-100% confluence. […] In 10 days, the tumors were harvested and weighed. The blood vessel numbers of the tumor were counted under×100. At least five areas were determined. The data are mean±SD from two experiments (n=8). A, representative tumor morphology; B, tumor weight; C, relative numbers of blood vessels.

[4] = test system: tumors induced by A2780/CP70 cells; assay: Blood vessel numbers of A2780/CP70 tumors on CAM; assay type: in vivo, chicken embryo; conditions: 10 μM apigenin or 2.5 μM CDDP+10 μM apigenin, 10 days
Experimental: as §2

[5] = test system: HIF-1 expression in OVCAR-3 cells; assay: HIF-1 immunoblotting, OVCAR-3; assay type: cell-based, human
Source text: (§3) FIG. 5. […] The cells treated with solvent alone were used as a control. HIF-1α and HIF-1β protein levels were detected by immunoblotting as described in Materials and Methods. GAPDH was used as an internal control to test the loading and transfer efficiency.

[6] = test system: HIF-1 expression in A2780/CP70 cells; assay: HIF-1 immunoblotting, A2780/CP70; assay type: cell-based, human
Source text: as §3

[7] = test system: VEGF expression in A2780/CP70 cells; assay: VEGF ELISA of supernatants, A2780/CP70; assay type: cell-based, human; conditions: A2780/CP70, 15 h
Experimental: FIG. 6. […] OVCAR-3 and A2780/CP70 cells were plated in 12-well plates and cultured to 90% confluence. […] The concentrations of VEGF in the supernatants were determined by ELISA method as described in Materials and Methods. The data are mean±SE from three independent experiments and each experiment was performed with triplicate cultures.

lung cancer cell A549 = assay: A549 cell counting proliferation; assay type: cell-based, human; conditions: A549, 10 and 20 μM, 24 and 48 h
Experimental: FIG. 12. […] A, A549 cells were seeded at 5 ×10^5 cells/well on a 24-well plate, and cultured overnight the day before the treatment. […] After 24 and 48 h, aliquots of cells were counted in triplicate using a hemocytometer to obtain cell number and proliferation rate.

[8] = test system: VEGF transcriptional activity in A549 cells; assay: VEGF reporter luciferase assay in A549; assay type: cell-based, human; conditions: A549, 5, 10, and 20 μM, 24 h
Experimental: FIG. 13. […] A549 cells were seeded on a six-well plate. When they reached 60 to 70% confluence, the cells were transfected using Lipofectamine reagent. A, A549 cells were cotransfected with 1 μg of pGL-StuI VEGF reporter and 0.3 μg of β-gal plasmid as described. […] Cells were then lysed and the supernatants were used to assay Luc and β-gal activities. The relative luciferase activities in the cell extracts were assayed by the ratio of Luc/β-gal activity and normalized to the value in the solvent DMSO control. B, cells were cotransfected with 1 μg of pMAP11wt VEGF reporter and 0.3 μg of β-gal plasmid as described. Cells were treated with different doses of apigenin as described above. C, the cells were transfected with pMAP11mut VEGF reporter (with 3-bp substitution of pMAP11wt), and treated as above “B”.

[9] = test system: A549 cell-induced tumor angiogenesis; assay: A549 Matrigel plug angiogenesis in nude mice; assay type: in vivo; conditions: 15 μM apigenin in plug, 15 days
Experimental: FIG. 16. […] Each treatment group contained four mice. The mice were euthanized 15 days after implantation. Representative Matrigel plugs from the solvent- and apigenin-treated groups. C, D, the relative angiogenesis was analyzed by the levels of RBC hemoglobin, a surrogate marker, in the Matrigel plugs. The hemoglobin content was analyzed by adding 1×RBC lysis buffer (1 mM EDTA and 5 mM potassium/sodium phosphate buffer, pH 8-8.5) to a plug, followed by incubation at 4° C. overnight. Hemoglobin levels were determined by the Drabkin method by a commercial assay kit (Sigma) according to the manufacturer's instruction with some modification. […] Relative hemoglobin content is the hemoglobin level (milligrams) divided by the final volume of each plug. The data are the mean±S.E. of eight Matrigel plugs for each experiment. *, significant difference compared with the solvent control (p<0.05).

## O=c1cc(-c2ccc(O)cc2)oc2cc(O)cc(O)c12 [apigenin, 4′,5,7,-trihydroxyflavone]
A2780/CP70 cells [1]
  effect on cell proliferation: inhibited cell proliferation
HCT-116 cells
  effect on cell proliferation: inhibited the proliferation
A2780/CP70 cells [2]; A2780/CP70, 10 μM apigenin or 10 μM apigenin plus 10 μM cisplatin
  cells undergoing apoptosis: 12%
A2780/CP70 cells [2]; A2780/CP70, apigenin alone
  induction of apoptosis: specifically induced apoptosis
[3]
  inhibition of tumor growth: 40%
[4]
  inhibition of blood vessel formation (angiogenesis): 35%
[5]
  effect on HIF-1 expression: inhibited HIF-1 expression
[6]
  effect on HIF-1 expression: inhibited HIF-1 expression
[7]
  effect on expression of VEGF: inhibited the expression of VEGF
Lung cancer cell A549
  effect on lung cancer cell proliferation: significantly inhibits
[8]
  effect on VEGF transcriptional activation: dramatically suppresses
[9]
  effect on tumor angiogenesis (hemoglobin content of Matrigel plugs): inhibited A549 cell-induced tumor angiogenesis
